Measurements: patent US20120129872A1, “FUSED HETEROARYL INHIBITORS OF PRO-MATRIX METALLOPROTEINASE ACTIVATION” (priority 2010, published 2012)

Tests used:
SCW-induced arthritis = test: Efficacy in rats with SCW-induced arthritis (ankle thickness, clinical scores); format: in vivo, rat; conditions: 5, 20, 50 mg/kg BID
From the text: A polyarthritis can be induced in female Lewis rats following i.p. administration of streptococcal cell wall (SCW) […] (PG-PS) (J Exp Med 1977; 146:1585-1602). The model has an acute phase (days 3-7) that is complement and neutrophil-dependent and that resolves. A chronic erosive phase begins at about day ten and is dependent on the development of specific T cell immunity to the PG-GS, which resists digestion and remains present in synovial macrophages for months. Like rheumatoid arthritis, SCW-induced arthritis is reduced by TNF inhibitors, and the dependence of SCW-induced arthritis on macrophages (Rheumatology; 2001; 40:978-987) and the strong association of rheumatoid arthritis severity with synovial-tissue macrophage counts (Ann Rheum Dis; 2005; 64:834-838) makes SCW-arthritis an attractive model for testing potential therapeutic agents. SCW PG-PS 10S (Beckton Dickinson Cat#210866) suspended in saline was vortexed for 30 seconds and sonicated for 3 min with a probe type sonicator prior to injection. […]
To induce arthritis, Female Lewis (LEW/N) rats, 5-6 weeks of age (80-100 g) were injected (i.p.) with SCW PG-PS as described above. […] Each ankle was measured 3 times and averaged, and treatment groups were randomized based on ankle thickness (Table 6). […]

[1] = target: T1, MMP9 mediated gelatinase activity (Rattus norvegicus, UniProt P50282); test: In situ zymography of gelatinase activity in livers of SCW-induced rats; format: in vivo; conditions: for Intensity, Rat 1 / Intensity, Rat 2 / Intensity, Rat 3 / Intensity, Mean: liver
T1 construct: from tissue; host or cells: liver sections of female Lewis rats
From the text: In situ zymography provides an alternative approach to assess active MMP9 in tissues (Frederiks). Tissue sections are overlain with fluorescene-conjugated gelatin wherein the conjugation is sufficiently dense to cause the fluorescene to be dye-quenched (DQ). Proteolytic degradation of the DQ-gelatin releases the fluorescene from the quenching effect giving rise to bright green fluorescence at the site of degradation. Because in situ zymography requires the use of frozen sections, calcified tissues are problematic. However, an additional feature of the SCW arthritis model is the development of hepatic granulomatous disease (J Immunol; 1986; 137:2199-2209), and MMP9 reportedly plays a role in macrophage recruitment in the granulomas response to mycobacteria (Infect Immun; 2006; 74:6135-6144). Consequently, granulomatous livers from SCW-treated rats were assessed for active MMP9 by in situ zymography.
As described above, Female Lewis (LEW/N) rats, 5-6 weeks of age (80-100 g) were injected (i.p.) with saline or SCW PG-PS. On day 28, when the granulomatous response was well established, animals were sacrificed and livers were frozen in OCT cryo-sectioning medium and […] sections were cut on a Cryome HM 500 M cryotome and mounted on glass microscope slides. Sections were air dried briefly. MMP9 was confirmed as the source of the gelatinase activity in the liver by treating liver sections with monoclonal antibodies directed against the active site of the two major gelatinases MMP9 and MMP2. Liver sections overlain with 50 μL of 100 μg/mL neutralizing mouse monoclonal antibodies directed against MMP9 (Calbiochem, clone 6-6B), or MMP2 (Millipore, clone CA-4001), or with PBS for 1 hr at room temperature. Tissues were rinsed once with PBS, blotted, and briefly air dried and then overlain with DQ-gelatin (Invitrogen) dissolved to 1 mg/mL in deionized water and then diluted 1:10 in 1% wt/vol low gelling point agarose type VII (Sigma) in PBS. The sections were covered with coverslips, incubated in the dark at room temperature for 20 min, and imaged on an Olympus IX80 inverted microscope fitted with fluorescence optics, using SlideBook™ imaging software (Intelligent Imaging Innovations, Inc., Philadelphia, Pa.; version 5.0). Fluorescence intensity was determined (Table 8). When compared to a saline-treated rat, gelatinase activity was abundantly expressed in granulomatous liver sections obtained from a rat with SCW arthritis.
Next, liver in situ zymography was used to assess the relative presence of active MMP9 in rats dosed with vehicle vs. Compound-α. Female Lewis (LEW/N) rats, 5-6 weeks of age (80-100 g) were injected (i.p.) with saline or SCW PG-PS. Commencing on day 25, randomized groups of rats (n=3 rats/group) received vehicle or 20 or 50 mg/kg Compound-α BID by oral gavage. Vehicle consisted of an aqueous mixture containing 2% (v:v) N-methylpyrrolidone, 5% (v:v) glycerine, and 20% (w:v) captisol. Treatment continued daily through the morning of day 28. Four hrs after the AM dose on day 28, rats were sacrificed and livers assessed for active MMP9 by in situ zymography (Table 9). Gelatinase activity was increased markedly in SCW-induced rats, but activity was reduced by approximately 80% in animals treated with 50 mg/kg Compound-α.

T1 sequence (P50282 108-708): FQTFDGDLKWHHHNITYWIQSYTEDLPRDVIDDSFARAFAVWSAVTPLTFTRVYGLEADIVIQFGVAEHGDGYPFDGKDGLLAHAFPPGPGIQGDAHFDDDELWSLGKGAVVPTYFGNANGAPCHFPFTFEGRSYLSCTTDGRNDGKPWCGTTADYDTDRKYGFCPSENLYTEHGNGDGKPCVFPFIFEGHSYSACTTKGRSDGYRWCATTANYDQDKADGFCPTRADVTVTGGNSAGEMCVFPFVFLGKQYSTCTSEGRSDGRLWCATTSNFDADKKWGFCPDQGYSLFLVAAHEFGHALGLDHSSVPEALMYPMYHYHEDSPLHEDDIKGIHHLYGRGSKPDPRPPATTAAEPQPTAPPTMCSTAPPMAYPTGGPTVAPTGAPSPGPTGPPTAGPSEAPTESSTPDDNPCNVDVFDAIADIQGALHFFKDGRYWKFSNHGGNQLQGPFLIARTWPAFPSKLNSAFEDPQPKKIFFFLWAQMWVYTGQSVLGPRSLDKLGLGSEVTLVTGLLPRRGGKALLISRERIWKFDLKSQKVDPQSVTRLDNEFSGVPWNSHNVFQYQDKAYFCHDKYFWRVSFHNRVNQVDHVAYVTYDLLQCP

Cc1nc(C)c(-c2csc(Nc3cc(S(N)(=O)=O)ccc3OC(C)C)n2)s1 [Compound-α, 3-(2′,4′-Dimethyl-[4,5′]bithiazolyl-2-ylamino)-4-isopropoxy-benzenesulfonamide•HBr]
Effect on ankle thickness measurements (SCW-induced arthritis; Day 18-26): dose-dependent decrease in ankle thickness measurements | Effect on clinical score measurements (SCW-induced arthritis; significant effects emerging at 20 mg/kg): dose dependent decrease in clinical score measurements | Reduction of liver gelatinase activity ([1]; 50 mg/kg BID Day 25-28): approximately 80% | Intensity, Rat 1 ([1]; 20 mg/kg BID Day 25-28): 43.0 RLU × 10^6 | Intensity, Rat 2 ([1]; 20 mg/kg BID Day 25-28): 69.0 RLU × 10^6 | Intensity, Rat 3 ([1]; 20 mg/kg BID Day 25-28): 53.7 RLU × 10^6 | Intensity, Mean ([1]; 20 mg/kg BID Day 25-28, n=3): 55.2 RLU × 10^6 | Intensity, Rat 1 ([1]; 50 mg/kg BID Day 25-28): 3.2 RLU × 10^6 | Intensity, Rat 2 ([1]; 50 mg/kg BID Day 25-28): 25.6 RLU × 10^6 | Intensity, Rat 3 ([1]; 50 mg/kg BID Day 25-28): 4.5 RLU × 10^6 | Intensity, Mean ([1]; 50 mg/kg BID Day 25-28, n=3): 11.1 RLU × 10^6
